Patent publication US9486506B2 (Novo Nordisk A/S, priority 2011, dated 2016)
Numbered stars: 1 amine (or outer) side, 2 acyl side, 3 side chain; on linkers, the order of the positions; unused ones are H or OH. Side chains are listed from the residue outwards. Peptide text beside a SMILES is read from it. * marks the point of attachment. C18 diacid = O=C(O)CCCCCCCCCCCCCCCCC(=O)*; C16 diacid = O=C(O)CCCCCCCCCCCCCCC(=O)*; γGlu = O=C(O)[C@H](CCC(=O)[*:2])N[*:1]; AEEA = NCCOCCOCC(=O)O

Experiments:
glucagon receptor = biological target: T1, glucagon receptor (Homo sapiens, UniProt P47871); assay: Assay (I) Glucagon activity (cAMP biosensor, FLIPR); assay type: cell-based
T1 construct: expressed in transfected cells

[1] = Assay (X) Chemical stability assessment by RP-UPLC; assay type: physicochemical; conditions: pH 8.15, 14 days at 37° C. vs 5° C., 333 μM

T1 sequence (P47871 26-477): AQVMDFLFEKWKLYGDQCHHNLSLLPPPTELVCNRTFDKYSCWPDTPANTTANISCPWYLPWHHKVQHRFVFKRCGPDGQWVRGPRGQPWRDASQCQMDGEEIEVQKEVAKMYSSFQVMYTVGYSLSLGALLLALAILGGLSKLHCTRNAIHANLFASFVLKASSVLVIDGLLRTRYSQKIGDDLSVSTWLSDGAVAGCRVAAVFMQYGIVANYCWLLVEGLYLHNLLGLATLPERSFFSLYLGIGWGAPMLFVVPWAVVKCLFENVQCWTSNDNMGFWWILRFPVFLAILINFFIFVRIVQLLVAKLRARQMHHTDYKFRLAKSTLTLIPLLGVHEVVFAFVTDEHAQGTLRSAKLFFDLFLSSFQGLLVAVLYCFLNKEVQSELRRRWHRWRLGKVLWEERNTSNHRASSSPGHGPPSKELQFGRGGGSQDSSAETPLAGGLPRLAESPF

SMILES: CC(C)C[C@H](NC(=O)[C@H](CC(=O)O)NC(=O)[C@H](CC(C)C)NC(=O)[C@H](Cc1ccc(O)cc1)NC(=O)[C@H](CCCCN)NC(=O)[C@H](CO)NC(=O)[C@H](Cc1ccc(O)cc1)NC(=O)[C@H](CC(=O)O)NC(=O)[C@H](CO)NC(=O)[C@@H](NC(=O)[C@H](Cc1ccccc1)NC(=O)[C@@H](NC(=O)CNC(=O)[C@H](CCC(N)=O)NC(=O)[C@H](CO)NC(=O)[C@@H](N)Cc1c[nH]cn1)[C@@H](C)O)[C@@H](C)O)C(=O)N[C@@H](CCCNC(=N)N)C(=O)N[C@@H](CCCNC(=N)N)C(=O)N[C@@H](C)C(=O)N[C@@H](CCC(N)=O)C(=O)N[C@@H](CC(=O)O)C(=O)N[C@@H](Cc1ccccc1)C(=O)N[C@H](C(=O)N[C@@H](CCCCNC(=O)CC[C@H](NC(=O)CC[C@H](NC(=O)COCCOCCNC(=O)COCCOCCNC(=O)CC[C@H](NC(=O)CCCCCCCCCCCCCCC(=O)O)C(=O)O)C(=O)O)C(=O)O)C(=O)N[C@@H](Cc1c[nH]c2ccccc12)C(=O)N[C@@H](CC(C)C)C(=O)N[C@@H](CC(C)C)C(=O)N[C@@H](CO)C(=O)N[C@H](C(=O)O)[C@@H](C)O)C(C)C [Example 85, N^ε24-[(4S)-4-carboxy-4-[[(4S)-4-carboxy-4-[[2-[2-[2-[[2-[2-[2-[[(4S)-4-carboxy-4-(15-carboxypentadecanoylamino)butanoyl]amino]ethoxy]ethoxy]acetyl]amino]ethoxy]ethoxy]acetyl]amino]butanoyl]amino]butanoyl]-[Leu16,Lys24,Leu27,Ser28]-Glucagon]
- EC50 (glucagon receptor): 0.039 nM
- Chemical stability [Purity loss/14 days 37 C.] [1]: 7.4%

SMILES: CC(C)C[C@H](NC(=O)[C@H](Cc1ccc(O)cc1)NC(=O)[C@H](CCCNC(=N)N)NC(=O)[C@H](CO)NC(=O)[C@H](Cc1ccc(O)cc1)NC(=O)[C@H](CC(=O)O)NC(=O)[C@H](CO)NC(=O)[C@@H](NC(=O)[C@H](Cc1ccccc1)NC(=O)[C@@H](NC(=O)CNC(=O)[C@H](CCC(N)=O)NC(=O)[C@H](CO)NC(=O)[C@@H](N)Cc1c[nH]cn1)[C@@H](C)O)[C@@H](C)O)C(=O)N[C@@H](CC(=O)O)C(=O)N[C@@H](CCCNC(=N)N)C(=O)N[C@@H](CCCNC(=N)N)C(=O)N[C@@H](CCCNC(=N)N)C(=O)N[C@@H](C)C(=O)N[C@@H](CCC(N)=O)C(=O)N[C@@H](CC(=O)O)C(=O)N[C@@H](Cc1ccccc1)C(=O)N[C@H](C(=O)N[C@@H](CCCCNC(=O)CC[C@H](NC(=O)CC[C@H](NC(=O)COCCOCCNC(=O)COCCOCCNC(=O)CC[C@H](NC(=O)CCCCCCCCCCCCCCCCC(=O)O)C(=O)O)C(=O)O)C(=O)O)C(=O)N[C@@H](Cc1c[nH]c2ccccc12)C(=O)N[C@@H](CC(C)C)C(=O)N[C@@H](CC(C)C)C(=O)N[C@@H](CO)C(=O)N[C@H](C(=O)O)[C@@H](C)O)C(C)C [Example 20, N^ε24-[(4S)-4-carboxy-4-[[(4S)-4-carboxy-4-[[2-[2-[2-[[2-[2-[2-[[(4S)-4-carboxy-4-(17-carboxyheptadecanoylamino)butanoyl]amino]ethoxy]ethoxy]acetyl]amino]ethoxy]ethoxy]acetyl]amino]butanoyl]amino]butanoyl]-[Arg^12,Arg^16,Lys^24,Leu^27,Ser^28]-Glucagon] (H-HSQGTFTSDYSRYLDRRRAQDFVK([γGlu-γGlu-AEEA-AEEA-γGlu-C18 diacid])WLLST-OH)
- EC50 (glucagon receptor): 0.355 nM
- Chemical stability [Purity loss/14 days 37 C.] [1]: 10.4%

SMILES: CC(C)C[C@H](NC(=O)[C@H](Cc1ccc(O)cc1)NC(=O)[C@H](CCCCN)NC(=O)[C@H](CO)NC(=O)[C@H](Cc1ccc(O)cc1)NC(=O)[C@H](CC(=O)O)NC(=O)[C@H](CO)NC(=O)[C@@H](NC(=O)[C@H](Cc1ccccc1)NC(=O)[C@@H](NC(=O)CNC(=O)[C@H](CCC(N)=O)NC(=O)[C@H](CO)NC(=O)[C@@H](N)Cc1c[nH]cn1)[C@@H](C)O)[C@@H](C)O)C(=O)N[C@@H](CC(=O)O)C(=O)N[C@@H](C)C(=O)N[C@@H](CCCNC(=N)N)C(=O)N[C@@H](CCCNC(=N)N)C(=O)N[C@@H](C)C(=O)N[C@@H](CCC(N)=O)C(=O)N[C@@H](CC(=O)O)C(=O)N[C@@H](Cc1ccccc1)C(=O)N[C@H](C(=O)N[C@@H](CCCCNC(=O)CC[C@H](NC(=O)CC[C@H](NC(=O)COCCOCCNC(=O)COCCOCCNC(=O)CC[C@H](NC(=O)CCCCCCCCCCCCCCCCC(=O)O)C(=O)O)C(=O)O)C(=O)O)C(=O)N[C@@H](Cc1c[nH]c2ccccc12)C(=O)N[C@@H](CC(C)C)C(=O)N[C@@H](CC(C)C)C(=O)N[C@@H](CCC(N)=O)C(=O)N[C@H](C(=O)O)[C@@H](C)O)C(C)C [Example 56, N^ε24-[(4S)-4-carboxy-4-[[(4S)-4-carboxy-4-[[2-[2-[2-[[2-[2-[2-[[(4S)-4-carboxy-4-(17-carboxyheptadecanoylamino)butanoyl]amino]ethoxy]ethoxy]acetyl]amino]ethoxy]ethoxy]acetyl]amino]butanoyl]amino]butanoyl]-[Ala16,Lys24,Leu27,Gln28]-Glucagon]
- EC50 (glucagon receptor): 0.192 nM
- Chemical stability [Purity loss/14 days 37 C.] [1]: 8.1%

SMILES: CC(C)C[C@H](NC(=O)[C@H](Cc1c[nH]c2ccccc12)NC(=O)[C@H](CCCCNC(=O)CC[C@H](NC(=O)COCCOCCNC(=O)COCCOCCNC(=O)CC[C@H](NC(=O)CC[C@H](NC(=O)CCCCCCCCCCCCCCCCC(=O)O)C(=O)O)C(=O)O)C(=O)O)NC(=O)[C@@H](NC(=O)[C@H](Cc1ccccc1)NC(=O)[C@H](CCC(=O)O)NC(=O)[C@H](CCC(N)=O)NC(=O)[C@H](C)NC(=O)[C@H](CCCNC(=N)N)NC(=O)[C@H](CCCNC(=N)N)NC(=O)[C@@H](NC(=O)[C@H](CC(=O)O)NC(=O)[C@H](CC(C)C)NC(=O)[C@H](Cc1ccc(O)cc1)NC(=O)[C@H](CCCCN)NC(=O)[C@H](CO)NC(=O)[C@@H](NC(=O)[C@H](CC(=O)O)NC(=O)[C@H](CO)NC(=O)[C@@H](NC(=O)[C@H](Cc1ccccc1)NC(=O)[C@@H](NC(=O)CNC(=O)[C@H](CCC(N)=O)NC(=O)[C@H](CO)NC(=O)[C@@H](N)Cc1c[nH]cn1)[C@@H](C)O)[C@@H](C)O)C(C)C)[C@@H](C)O)C(C)C)C(=O)N[C@@H](CC(C)C)C(=O)N[C@@H](CO)C(=O)N[C@H](C(N)=O)[C@@H](C)O [Example 61, N^ε24-[(4S)-4-carboxy-4-[[2-[2-[2-[[2-[2-[2-[[(4S)-4-carboxy-4-[[(4S)-4-carboxy-4-(17-carboxyheptadecanoylamino)butanoyl]amino]butanoyl]amino]ethoxy]ethoxy]acetyl]amino]ethoxy]ethoxy]acetyl]amino]butanoyl]-[Val10,Thr16,Glu21,Lys24,Leu27,Ser28]-Glucagon amide] (H-HSQGTFTSDVSKYLDTRRAQEFVK([γGlu-AEEA-AEEA-γGlu-γGlu-C18 diacid])WLLST-NH2)
- EC50 (glucagon receptor): 0.156 nM
- Chemical stability [Purity loss/14 days 37 C.] [1]: 6.2%

SMILES: CC(C)C[C@H](NC(=O)[C@H](Cc1ccc(O)cc1)NC(=O)[C@H](CCCCN)NC(=O)[C@H](CO)NC(=O)[C@H](Cc1ccc(O)cc1)NC(=O)[C@H](CC(=O)O)NC(=O)[C@H](CO)NC(=O)[C@@H](NC(=O)[C@H](Cc1ccccc1)NC(=O)[C@@H](NC(=O)CNC(=O)[C@H](CCC(N)=O)NC(=O)[C@H](CO)NC(=O)[C@@H](N)Cc1c[nH]cn1)[C@@H](C)O)[C@@H](C)O)C(=O)N[C@@H](CC(=O)O)C(=O)N[C@@H](CCC(=O)O)C(=O)N[C@@H](CCCNC(=N)N)C(=O)N[C@@H](CCCNC(=N)N)C(=O)N[C@@H](C)C(=O)N[C@@H](CCC(N)=O)C(=O)N[C@@H](CC(=O)O)C(=O)N[C@@H](Cc1ccccc1)C(=O)N[C@H](C(=O)N[C@@H](CCCCNC(=O)CC[C@H](NC(=O)CC[C@H](NC(=O)COCCOCCNC(=O)COCCOCCNC(=O)CC[C@H](NC(=O)CCCCCCCCCCCCCCC(=O)O)C(=O)O)C(=O)O)C(=O)O)C(=O)N[C@@H](Cc1c[nH]c2ccccc12)C(=O)N[C@@H](CC(C)C)C(=O)N[C@@H](CC(C)C)C(=O)N[C@@H](CO)C(=O)N[C@H](C(=O)O)[C@@H](C)O)C(C)C [Example 93, N^ε24-[(4S)-4-carboxy-4-[[(4S)-4-carboxy-4-[[2-[2-[2-[[2-[2-[2-[[(4S)-4-carboxy-4-(15-carboxypentadecanoylamino)butanoyl]amino]ethoxy]ethoxy]acetyl]amino]ethoxy]ethoxy]acetyl]amino]butanoyl]amino]butanoyl]-[Glu16,Lys24,Leu27,Ser28]-Glucagon] (H-HSQGTFTSDYSKYLDERRAQDFVK([γGlu-γGlu-AEEA-AEEA-γGlu-C16 diacid])WLLST-OH; N-terminus and C-terminus assumed)
- EC50 (glucagon receptor): 0.017 nM
- Chemical stability [Purity loss/14 days 37 C.] [1]: 14%

SMILES: CC(C)C[C@H](NC(=O)[C@H](Cc1c[nH]c2ccccc12)NC(=O)[C@H](CCCCNC(=O)CC[C@H](NC(=O)CC[C@H](NC(=O)COCCOCCNC(=O)COCCOCCNC(=O)CC[C@H](NC(=O)CCCCCCCCCCCCCCCCC(=O)O)C(=O)O)C(=O)O)C(=O)O)NC(=O)[C@@H](NC(=O)[C@H](Cc1ccccc1)NC(=O)[C@H](CC(=O)O)NC(=O)[C@H](CCC(N)=O)NC(=O)[C@H](C)NC(=O)[C@H](CCCNC(=N)N)NC(=O)[C@H](CCCNC(=N)N)NC(=O)[C@@H](NC(=O)[C@H](CC(=O)O)NC(=O)[C@H](CC(C)C)NC(=O)[C@H](Cc1ccc(O)cc1)NC(=O)[C@H](CCCNC(=N)N)NC(=O)[C@H](CO)NC(=O)[C@H](Cc1ccc(O)cc1)NC(=O)[C@H](CC(=O)O)NC(=O)[C@H](CO)NC(=O)[C@@H](NC(=O)[C@H](Cc1ccccc1)NC(=O)[C@@H](NC(=O)CNC(=O)[C@H](CCC(N)=O)NC(=O)[C@H](CO)NC(=O)[C@@H](N)Cc1c[nH]cn1)[C@@H](C)O)[C@@H](C)O)[C@@H](C)O)C(C)C)C(=O)N[C@@H](CCC(=O)O)C(=O)N[C@@H](CO)C(=O)N[C@H](C(=O)O)[C@@H](C)O [Example 44, N^ε24-[(4S)-4-carboxy-4-[[(4S)-4-carboxy-4-[[2-[2-[2-[[2-[2-[2-[[(4S)-4-carboxy-4-(17-carboxyheptadecanoylamino)butanoyl]amino]ethoxy]ethoxy]acetyl]amino]ethoxy]ethoxy]acetyl]amino]butanoyl]amino]butanoyl]-[Arg12,Thr16,Lys24,Glu27,Ser28]-Glucagon] (H-HSQGTFTSDYSRYLDTRRAQDFVK([γGlu-γGlu-AEEA-AEEA-γGlu-C18 diacid])WLEST-OH)
- EC50 (glucagon receptor): 0.176 nM
- Chemical stability [Purity loss/14 days 37 C.] [1]: 10.5%
